Measured values reported in ChEMBL document CHEMBL4052716, “Discovery and development of a novel class of phenoxyacetyl amides as highly potent TRPM8 agonists for use as cooling agents” (Bioorg Med Chem Lett, 2017).
≈ marks a conversion by molar mass, not a printed value.

How the values were obtained:
[1] = molecular target: T1, Transient receptor potential cation channel subfamily M member 8 (Homo sapiens, UniProt Q7Z2W7); test: Agonist activity at human TRPM8 expressed in HEK293 cells assessed as increase in intracellular calcium level after 15 mins by Fluo-3-AM dye-based fluorescence assay; type: cell-based
Target sequence in this assay (Q7Z2W7 whole entry): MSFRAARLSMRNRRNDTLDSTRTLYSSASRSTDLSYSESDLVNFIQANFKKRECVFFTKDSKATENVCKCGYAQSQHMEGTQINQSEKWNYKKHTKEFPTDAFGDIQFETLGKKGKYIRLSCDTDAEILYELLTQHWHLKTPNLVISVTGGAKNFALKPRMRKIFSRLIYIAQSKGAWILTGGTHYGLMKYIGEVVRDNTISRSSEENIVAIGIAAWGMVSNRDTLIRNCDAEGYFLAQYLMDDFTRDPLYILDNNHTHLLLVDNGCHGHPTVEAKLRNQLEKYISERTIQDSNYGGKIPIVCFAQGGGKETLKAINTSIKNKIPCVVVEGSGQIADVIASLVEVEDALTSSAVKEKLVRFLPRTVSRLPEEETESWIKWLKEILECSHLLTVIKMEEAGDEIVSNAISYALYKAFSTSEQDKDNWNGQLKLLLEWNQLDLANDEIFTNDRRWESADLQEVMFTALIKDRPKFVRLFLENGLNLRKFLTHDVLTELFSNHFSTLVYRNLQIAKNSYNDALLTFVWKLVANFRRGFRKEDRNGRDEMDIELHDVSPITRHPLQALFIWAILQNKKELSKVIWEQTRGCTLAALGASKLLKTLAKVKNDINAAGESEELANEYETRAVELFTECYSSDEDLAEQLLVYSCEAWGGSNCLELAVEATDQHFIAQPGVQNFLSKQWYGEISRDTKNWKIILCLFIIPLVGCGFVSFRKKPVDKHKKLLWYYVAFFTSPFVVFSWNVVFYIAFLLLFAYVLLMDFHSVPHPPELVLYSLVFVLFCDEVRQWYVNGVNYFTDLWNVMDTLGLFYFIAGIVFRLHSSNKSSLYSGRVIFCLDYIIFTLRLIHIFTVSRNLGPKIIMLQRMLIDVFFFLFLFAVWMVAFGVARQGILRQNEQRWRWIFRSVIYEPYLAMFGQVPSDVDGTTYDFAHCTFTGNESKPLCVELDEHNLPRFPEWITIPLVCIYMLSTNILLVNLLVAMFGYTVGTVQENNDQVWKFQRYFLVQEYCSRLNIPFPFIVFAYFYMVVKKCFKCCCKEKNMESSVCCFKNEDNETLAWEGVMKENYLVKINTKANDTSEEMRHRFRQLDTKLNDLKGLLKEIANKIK

[2] = molecular target: T1, Transient receptor potential cation channel subfamily M member 8; test: Potency index, ratio of WS-3 EC50 to compound EC50 for human TRPM8 receptor
Target sequence in this assay (Q7Z2W7 whole entry, looked up): as the sequence (Q7Z2W7 whole entry) above

[3] = Thermodynamic solubility of the compound in pH 7.1 phosphoric buffer; type: physicochemical; details: read-out: Therm_solubility
[4] = Permeability of the compound assessed as drug transport by PAMPA; type: physicochemical
Homo sapiens = test: In vivo agonist activity at human TRPM8 in trained human subjects assessed as concentration required to deliver cooling sensation equivalent to 45 uM WS-3 by measuring cooling intensity; type: functional

| Structure (SMILES) | EC50 ([1]; read-out: EC50) [nM] | Ratio EC50 [2] | EC50 ([1]; hek293) | solubility thermodynamic [3] [µM] | Drug transport [4] [%] | Activity (Homo sapiens) [µM] |
| --- | --- | --- | --- | --- | --- | --- |
| CCC(C)N(Cc1cccs1)C(=O)COc1ccc(C)cc1 (stereo not drawn) | 2000 | 2 | – | – | – | – |
| CCN(Cc1ccccc1)C(=O)COc1ccc(C)cc1 | 1880 | 2 | – | – | – | – |
| CCN(Cc1cccs1)C(=O)COc1ccccc1 | 1400 | 4 | – | – | – | – |
| Cc1ccc(OC2CCN(Cc3cccs3)C2=O)cc1 (stereo not drawn) | – | – | Not Active | – | – | – |
| CCN(Cc1cc[nH]c1)C(=O)COc1ccc(C)cc1 | 21800 | 0.2 | – | – | – | – |
| CCN(Cc1cccs1)C(=O)COc1ccc2c(c1)COC2 | 61 | 58 | – | 571 (≈ 181 µg/mL) | 33 | 5 |
| CCN(Cc1cccs1)C(=O)c1cc2cc(C)ccc2n1C | – | – | Not Active | – | – | – |
| CCN(C(=O)COc1ccc(C)cc1)C(C)c1cccs1 (stereo not drawn) | – | – | Not Active | – | – | – |
| CCN(Cc1cccs1)C(=O)COc1ccc(C(F)(F)F)cc1 | 236 | 18 | – | – | – | – |
| CCN(Cc1cccs1)C(=O)COc1ccc(C)cc1 | 8 | 620 | – | 545 (≈ 158 µg/mL) | 12 | 5 |
| CCN(Cc1cccs1)C(=O)c1cc2cc(C)ccc2o1 | 120 | 42 | – | 27 (≈ 8.08 µg/mL) | 2 | 10 |
| CCN(Cc1cccs1)C(=O)c1cc2cc(OC)ccc2o1 | 80 | 164 | – | 49 (≈ 15.5 µg/mL) | 1 | 5 |
| CCN(Cc1cncs1)C(=O)COc1ccc(C)cc1 | 1100 | 4 | – | – | – | – |
| Cc1ccc(OCC(=O)N(Cc2cccs2)c2ccn(C)n2)cc1 | 855 | 13 | – | – | – | – |
| CCc1ccc(OCC(=O)N(CC)Cc2cccs2)cc1 | 67 | 66 | – | – | – | 5 |
| CCN(Cc1cccs1)C(=O)COc1cc(C)ccc1O | 24 | 180 | – | – | – | 5 |
| CCN(Cc1cccnc1)C(=O)COc1ccc(C)cc1 | 15400 | 0.2 | – | – | – | – |
| CCN(Cc1cccs1)C(=O)C[C@H](O)c1ccccc1 | 52000 | 0.1 | – | – | – | – |
| CCN(Cc1cccs1)C(=O)C(C)Oc1ccc(C)cc1 (stereo not drawn) | 889 | 4 | – | – | – | – |
| Cc1ccc(OCC(=O)N(Cc2cccs2)C2CC2)cc1 | 8 | 577 | – | – | – | 5 |
| COc1ccc(OCC(=O)N(Cc2cccs2)c2ccn[nH]2)cc1 | – | 1140 | – | – | – | 5 |
| Cc1ccc(OCC(=O)N(CCCO)Cc2cccs2)cc1 | 3000 | 1 | – | – | – | – |

| Structure (SMILES) | EC50 ([1]; read-out: EC50) [nM] | Ratio EC50 [2] | EC50 ([1]; hek293) | solubility thermodynamic [3] [µM] | Drug transport [4] [%] | Activity (Homo sapiens) [µM] |
| --- | --- | --- | --- | --- | --- | --- |
| CCN(Cc1cccs1)C(=O)C(C)(C)Oc1ccc(C)cc1 | 11000 | 0.3 | – | – | – | – |
| CCN(Cc1cccs1)C(=O)COc1ccccc1C | 192 | 18 | – | – | – | – |
| CCN(Cc1cccs1)C(=O)COc1ccc2c(c1)CCCC2 | 689 | 7 | – | – | – | – |
| CCN(Cc1cc[nH]n1)C(=O)COc1ccc(C)cc1 | – | – | Not Active | – | – | – |
| COc1ccc2oc(C(=O)N(Cc3cccs3)c3ccn[nH]3)cc2c1 | 1.1 | 30900 | – | – | – | 5 |
| CCN(Cc1cccs1)C(=O)/C=C/c1ccc2c(c1)OCO2 | 0.7 | 6830 | – | – | – | – |
| Cc1ccc(OCC(=O)N(C)Cc2cccs2)cc1 | 400 | 15 | – | – | – | – |
| Cc1ccc(OCC(=O)N(Cc2cccs2)c2cnccn2)cc1 | 1240 | 3 | – | – | – | – |
| Cc1ccc(OCC(=O)N(Cc2cccs2)c2ccncc2)cc1 | 52 | 77 | – | – | – | – |
| CON(Cc1cccs1)C(=O)COc1ccc(C)cc1 | 10 | 317 | – | – | – | – |
| Cc1ccc(OCC(=O)N(CCO)Cc2cccs2)cc1 | 900 | 5 | – | – | – | – |
| Cc1ccc(OCC(=O)N(Cc2cccs2)c2nccn2C)cc1 | 1790 | 3 | – | – | – | – |
| Cc1ccc(OCC(=O)N(Cc2cccs2)c2ccccn2)cc1 | 200 | 25 | – | – | – | 15 |
| Cc1ccc2oc(C(=O)N(Cc3cccs3)c3ccn[nH]3)cc2c1 | 40 | > 1e+06 | – | – | – | 4 |
| Cc1ccc(OCC(=O)N(Cc2cccs2)c2cn[nH]c2)cc1 | 1.4 | 3820 | – | – | – | >5 |
| CCN(Cc1cccs1)C(=O)CCc1ccc(C)cc1 | 93 | 40 | – | – | – | >5 |
| Cc1ccc(OCC(=O)N(Cc2cccs2)c2cccnc2)cc1 | 198 | 24 | – | – | – | 15 |
| Cc1ccc(OCC(=O)N(Cc2cccs2)c2c[nH]nc2C)cc1 | 0.4 | 10700 | – | – | – | >5 |
| O=C(COc1ccc2c(c1)OCO2)N(Cc1cccs1)c1ccn[nH]1 | 0.6 | 6340 | – | – | – | – |
| CCN(Cc1ccc(C)s1)C(=O)COc1ccc(C)cc1 | 178 | 18 | – | – | – | – |
| CCN(Cc1cccs1)C(=O)COc1ccc(C(C)C)cc1 | 397 | 10 | – | – | – | – |
| COCCN(Cc1cccs1)C(=O)COc1ccc(C)cc1 | 400 | 11 | – | – | – | – |

| Structure (SMILES) | EC50 ([1]; read-out: EC50) [nM] | Ratio EC50 [2] | EC50 ([1]; hek293) | solubility thermodynamic [3] [µM] | Drug transport [4] [%] | Activity (Homo sapiens) [µM] |
| --- | --- | --- | --- | --- | --- | --- |
| CCN(Cc1cccs1)C(=O)COc1ccc2c(c1)CCC2 | 0.8 | 7680 | – | 85 (≈ 26.8 µg/mL) | 3 | 3 |
| Cc1ccc(OCC(=O)N(Cc2cccs2)C2COC2)cc1 | 23000 | 0.3 | – | – | – | – |
| CCN(Cc1cccs1)C(=O)C[C@@H](O)c1ccccc1 | – | – | Not Active | – | – | – |
| Cc1ccc(OCC(=O)N(Cc2cccs2)c2c(C)n[nH]c2C)cc1 | 0.3 | 14700 | – | – | – | – |
| Cc1ccc(OCC(=O)NCc2cccs2)cc1 | 25000 | 0.1 | – | – | – | – |
| CCN(Cc1cccs1)C(=O)COc1ccc(F)cc1 | 422 | 10 | – | – | – | – |
| O=C(/C=C/c1ccc2c(c1)OCO2)N(Cc1cccs1)c1ccn[nH]1 | 0.002 | > 1e+06 | – | – | – | – |
| Cc1ccc(OCC(=O)N(Cc2cccs2)CC(C)C)cc1 | 900 | 3 | – | – | – | – |
| CCN(Cc1cccs1)C(=O)/C=C/c1ccc(C)cc1 | 2 | 2340 | – | – | – | 3 |
| CCN(Cc1cccs1)C(=O)c1cc2cc(C)ccc2[nH]1 | 2000 | 2 | – | – | – | – |
| Cc1ccc(OCC(=O)N(Cc2cccs2)C(C)C)cc1 | 70 | 66 | – | – | – | – |
| CCN(Cc1c[nH]nn1)C(=O)COc1ccc(C)cc1 | 31100 | 0.1 | – | – | – | – |
| CCN(Cc1ccccn1)C(=O)COc1ccc(C)cc1 | 16000 | 0.2 | – | – | – | – |
| CCCc1ccc(OCC(=O)N(CC)Cc2cccs2)cc1 | 1810 | 3 | – | – | – | – |
| CCN(Cc1cccs1)C(=O)COc1ccc(Cl)cc1 | 39 | 93 | – | – | – | – |
| CCN(Cc1cccs1)C(=O)COc1ccc(C#N)cc1 | 1990 | 2 | – | – | – | – |
| CCN(Cc1ccncc1)C(=O)COc1ccc(C)cc1 | – | – | Not Active | – | – | – |
| CCN(Cc1ccsc1)C(=O)COc1ccc(C)cc1 | 88 | 49 | – | – | – | 5 |
| CCN(Cc1cccs1)C(=O)COc1ccc(C(=O)O)cc1 | – | – | Not Active | – | – | – |
| CCN(Cc1cccs1)C(=O)COc1ccc(C)cc1O | 8 | 650 | – | – | – | 3 |
| O=C(COc1ccc2c(c1)CCC2)N(Cc1cccs1)c1ccn[nH]1 | 0.001 | > 1e+06 | – | 26 (≈ 9.19 µg/mL) | 5 | 3 |
| Cc1ccc(OCC(=O)N(Cc2cccs2)c2ncccn2)cc1 | 3700 | 1 | – | – | – | – |

| Structure (SMILES) | EC50 ([1]; read-out: EC50) [nM] | Ratio EC50 [2] | EC50 ([1]; hek293) | solubility thermodynamic [3] [µM] | Drug transport [4] [%] | Activity (Homo sapiens) [µM] |
| --- | --- | --- | --- | --- | --- | --- |
| Cc1ccc(OCC(=O)N(Cc2cccs2)c2cnn(C)c2)cc1 | 63000 | 0.1 | – | – | – | – |
| COc1ccc(OCC(=O)N(Cc2cccs2)c2cc[nH]n2)cc1 | 3.7 | – | – | – | – | – |
| CCN1C(=O)C(Oc2ccc(C)cc2)C1c1cccs1 (stereo not drawn) | – | – | Active | – | – | – |
| CCCN(Cc1cccs1)C(=O)COc1ccc(C)cc1 | 40 | 149 | – | – | – | >5 |
| CCN(Cc1ccoc1)C(=O)COc1ccc(C)cc1 | 136 | 32 | – | – | – | 5 |
| CCN(Cc1cn[nH]c1)C(=O)COc1ccc(C)cc1 | – | – | Active | – | – | – |
| CCN(Cc1cccn1C)C(=O)COc1ccc(C)cc1 | 21300 | 0.3 | – | – | – | – |
| CCN(Cc1cccs1)C(=O)COc1ccc(OC)cc1 | 120 | 32 | – | – | – | 15 |
| C=CCN(Cc1cccs1)C(=O)COc1ccc(C)cc1 | 20 | 365 | – | – | – | 5 |
| CCN(Cc1cccs1)C(=O)c1cc2cc(C)ccc2s1 | 1600 | 3 | – | – | – | – |
| CCN(Cc1cccs1)C(=O)COc1cccc(C)c1 | 97 | 42 | – | – | – | 5 |
| CCN(Cc1nccs1)C(=O)COc1ccc(C)cc1 | 3060 | 2 | – | – | – | – |
| Cc1ccc(OCC(=O)N(Cc2cccs2)C(C)(C)C)cc1 | 11000 | 0.4 | – | – | – | – |
| Cc1ccc(OCC(=O)N(Cc2cccs2)C2CCCCC2)cc1 | 40000 | 0.1 | – | – | – | – |
| CCN(Cc1ccco1)C(=O)COc1ccc(C)cc1 | 489 | 9 | – | – | – | 15 |
| Cc1ccc(OCC(=O)N(Cc2cccs2)c2nccs2)cc1 | 2240 | 2 | – | – | – | – |
| CCN(Cc1cccs1)C(=O)COc1ccc(CO)cc1 | 21900 | 0.2 | – | – | – | – |
| Cc1ccc(OCC(=O)N(Cc2cccs2)c2ccccc2)cc1 | 23 | 197 | – | – | – | 15 |
| Cc1ccc(OCC(=O)N(O)Cc2cccs2)cc1 | 8000 | 0.4 | – | – | – | – |
